Tests used:
[1] = molecular target: human TRPC6 ion channel (Homo sapiens (Human), UniProt Q9Y210); assay: Inhibition of TRPC6 FLIPR Assay (membrane potential dye, OAG challenge); format: cell-based; settings: TRPC6-HEK293 cells, OAG at EC80; most potent isolated isomer; mean of minimum 2 experiments
From the text: (§1) TRPC3 and TRPC6 channel opening causes an influx of predominantly calcium and sodium cations that result in a change in the electrical potential across the cell membrane. This change in membrane potential can be monitored using membrane potential dyes in the following FLIPR™ (Fluorescent Imaging Plate Reader) assays.
TRPC6-HEK293 was purchased from PerkinElmer (PerkinElmer, Product No.: AX-012-C), HEK293 cells were transfected using the pcDNA3.1(+)expression vector containing the coding sequence of the human TRPC6 ion channel. The coding sequence used is identical to coding sequence of GenBank NM_004621 with the exception of 2 synonym variations (t1683c and c2529t). The cells were grown in DMEM+10% fetal bovine serum (FBS) 0.5 mg/ml. Geneticin (ion channel expression selection) as culture medium.
TRPC6 cells were plated at 10K cells/well into 384-well polystyrene plates and then grown for 24 hs at 37° C. plus 5% CO2. After this time the media was aspirated using a Tecan plate washer and then replaced with 40 μL of dye loading buffer (130 mM NaCl, 5 mM KCl, 0.15 mM CaCl2, 1 mM MgCl2, 20 mM HEPES ((4-(2-hydroxyethyl)-1-piperazineethanesulfonic acid)), 5 mM NaHCO3). For TRPC6, a final concentration of 0.5× is used. Cells with membrane potential dye were then incubated for 30 mins at room temperature prior to beginning the experiments.
(§2) To test the effects of compounds on TRPC6 activity, compounds were first diluted in 100% DMSO to 3× the final concentration to be used in the experiments. Typical dose-response experiments ranged from 10 μM (top concentration) to 0.5 nM (lowest concentration). Ten microliters of 0.5× compound in 0.5% DMSO were added to 40 μL of cells incubated with membrane potential dye. Compound addition was performed on a FLIPRTetra or a FLIPR 384 (MDS Analytical Technologies, Molecular Devices, Sunnyvale, Calif., 94089, USA). After a 400 second incubation with compound, 12.5 of OAG (1-oleoyl-2-acetyl-sn-glycerol (OAG), Sigma, Gillingham, Dorset, SP8 4XT Cat #O6754-10 MG) was added at 5× the EC80 (typical EC80 for TRPC6=3 μM final). The OAG challenge is designed to measure the inhibitory activity of compounds on receptor-operated TRPC6 activation.
(§3) All data was normalized to low controls (buffer alone) or high controls (OAG EC100). Data was analyzed using an XC50 curve fitting module and reported as pIC50 or IC50 values. The values are averaged to determine a mean value, for a minimum of 2 experiments.

[2] = molecular target: human TRPC3 ion channel (Homo sapiens (Human), UniProt Q13507); assay: Inhibition of TRPC3 FLIPR Assay (membrane potential dye, OAG challenge); format: cell-based; settings: TRPC3 transfected AD293 cells, OAG at EC80; most potent isolated isomer; mean of minimum 2 experiments
Chain of human TRPC3 ion channel (Q13507 whole entry): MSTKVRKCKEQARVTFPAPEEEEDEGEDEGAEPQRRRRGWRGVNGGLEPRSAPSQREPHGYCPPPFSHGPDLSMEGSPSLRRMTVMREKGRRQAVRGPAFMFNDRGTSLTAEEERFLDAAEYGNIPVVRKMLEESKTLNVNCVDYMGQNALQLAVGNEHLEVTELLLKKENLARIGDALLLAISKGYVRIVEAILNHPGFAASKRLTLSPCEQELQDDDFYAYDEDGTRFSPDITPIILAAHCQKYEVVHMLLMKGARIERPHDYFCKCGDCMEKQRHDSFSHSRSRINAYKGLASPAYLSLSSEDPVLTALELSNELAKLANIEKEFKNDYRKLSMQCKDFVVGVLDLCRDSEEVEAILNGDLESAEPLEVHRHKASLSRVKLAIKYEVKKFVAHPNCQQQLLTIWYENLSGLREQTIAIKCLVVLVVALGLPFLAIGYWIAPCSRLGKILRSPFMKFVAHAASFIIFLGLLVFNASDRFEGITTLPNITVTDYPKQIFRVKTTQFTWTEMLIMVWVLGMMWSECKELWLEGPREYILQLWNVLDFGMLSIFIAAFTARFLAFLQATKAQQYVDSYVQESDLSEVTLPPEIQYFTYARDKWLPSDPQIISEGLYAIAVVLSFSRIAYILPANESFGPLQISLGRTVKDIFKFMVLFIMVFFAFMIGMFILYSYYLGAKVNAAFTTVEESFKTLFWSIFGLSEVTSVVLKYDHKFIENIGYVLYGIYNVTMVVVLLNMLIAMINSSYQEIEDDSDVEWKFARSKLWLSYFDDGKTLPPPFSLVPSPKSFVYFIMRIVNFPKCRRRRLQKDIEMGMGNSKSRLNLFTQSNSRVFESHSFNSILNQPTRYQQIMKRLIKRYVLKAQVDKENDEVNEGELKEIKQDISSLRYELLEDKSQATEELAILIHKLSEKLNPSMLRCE
From the text: as §1
AD293 cells were transfected using the PLVX-puro lentivirus vector containing the coding sequence of the human TRPC3 ion channel. Puromycin-resistant cells were selected by treating with […] puromycin for two weeks. Monoclonal cells were obtained by limiting dilution and compared for their response to OAG in a membrane potential assay. The cells were grown in DMEM+10% fetal bovine serum (FBS)+1 μg/mL puromycin as culture medium.
TRPC3 cells were plated at 9K/well into 384-well polystyrene plates. Cells were grown for 24 h at 37° C. plus 5% CO2 after which media was aspirated using a Tecan plate washer and replaced with 40 μL of dye loading buffer (130 mM NaCl, 5 mM KCl, 0.15 mM CaCl2, 1 mM MgCl2, 20 mM HEPES ((4-(2-hydroxyethyl)-1-piperazineethanesulfonic acid)), 5 mM NaHCO3). For TRPC3 a final concentration of 0.5× membrane potential dye (Molecular Devices Membrane Blue, FLIPR Membrane Potential Assay Kit (bulk), Product #R8034(BLUE), Molecular Devices, Sunnyvale, Calif., 94089, USA) was used. Cells with membrane potential dye were then incubated for 30 mins at room temperature prior to beginning the experiments.
as §2, with “TRPC3” for “TRPC6”, “5×” for “0.5×”, “Technologies).” for “Technologies, Molecular Devices, Sunnyvale, Calif., 94089, USA).”, “12.5 μL” for “12.5”, “OAG” for “OAG (1-oleoyl-2-acetyl-sn-glycerol (OAG), Sigma, Gillingham, Dorset, SP8 4XT Cat #O6754-10 MG)”, “TRPC3=2” for “TRPC6=3”
as §3

Chain of human TRPC6 ion channel (Q9Y210 whole entry): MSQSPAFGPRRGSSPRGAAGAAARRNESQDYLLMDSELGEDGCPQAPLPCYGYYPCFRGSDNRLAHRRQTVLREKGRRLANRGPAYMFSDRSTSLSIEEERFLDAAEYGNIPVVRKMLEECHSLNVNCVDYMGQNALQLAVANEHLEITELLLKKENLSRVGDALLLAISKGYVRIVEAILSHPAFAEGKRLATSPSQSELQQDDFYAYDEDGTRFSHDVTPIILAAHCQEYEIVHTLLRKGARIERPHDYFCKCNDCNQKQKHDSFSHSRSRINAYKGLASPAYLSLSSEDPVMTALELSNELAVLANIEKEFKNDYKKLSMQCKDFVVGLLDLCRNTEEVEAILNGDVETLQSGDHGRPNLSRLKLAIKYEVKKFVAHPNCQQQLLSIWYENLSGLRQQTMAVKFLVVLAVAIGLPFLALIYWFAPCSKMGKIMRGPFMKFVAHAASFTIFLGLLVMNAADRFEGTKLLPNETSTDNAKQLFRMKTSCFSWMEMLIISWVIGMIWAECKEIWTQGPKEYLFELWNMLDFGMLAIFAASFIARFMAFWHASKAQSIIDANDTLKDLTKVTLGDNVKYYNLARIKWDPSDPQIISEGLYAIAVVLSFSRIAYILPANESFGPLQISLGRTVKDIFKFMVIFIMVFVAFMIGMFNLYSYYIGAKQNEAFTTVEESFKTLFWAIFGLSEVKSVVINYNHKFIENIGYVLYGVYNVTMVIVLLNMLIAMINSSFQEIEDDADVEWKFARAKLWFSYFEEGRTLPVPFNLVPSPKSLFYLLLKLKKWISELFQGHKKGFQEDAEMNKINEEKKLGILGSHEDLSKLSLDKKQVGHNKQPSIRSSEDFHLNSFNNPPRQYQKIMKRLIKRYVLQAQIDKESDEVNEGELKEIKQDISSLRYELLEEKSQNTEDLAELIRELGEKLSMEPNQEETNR

Compound	IC50 [1]	IC50 [2]
N#Cc1ccc(OC2CC(c3ccc(F)cc3)CC2N2CCCC(N)C2)cc1F (centres unmarked) [Example 19, 4-[2-(3-amino-1-piperidyl)-4-(4-fluorophenyl)cyclopentoxy]-2-fluoro-benzonitrile]	25.1 nM	64.5 nM
N#Cc1ccc(OC2CC(c3ccc(F)c(O)c3)CC2N2CCCC(N)C2)cc1 (centres unmarked) [Example 14, 4-[2-(3-amino-1-piperidyl)-4-(4-fluoro-3-hydroxy-phenyl)cyclopentoxy]benzonitrile]	17.4 nM	58.8 nM
N#Cc1cnc(OC2CC(c3ccc(F)cc3)CC2N2CCCC(N)C2)cn1 (centres unmarked) [Example 31, 5-[2-(3-amino-1-piperidyl)-4-(4-fluorophenyl)cyclopentoxy]pyrazine-2-carbonitrile]	13.7 nM	25.5 nM
NC1CCCN(C2CC(c3ccc(F)cc3)CC2Oc2cccnn2)C1 (centres unmarked) [Example 28, 1-[4-(4-fluorophenyl)-2-pyridazin-3-yloxy-cyclopentyl]piperidin-3-amine]	17.8 nM	32.2 nM
NC1CC(F)CN(C2CC(c3ccc(F)cc3)CC2n2ncnn2)C1 (centres unmarked) [Example 11, 5-fluoro-1-[4-(4-fluorophenyl)-2-(tetrazol-2-yl)cyclopentyl]piperidin-3-amine]	10.6 nM	4.03 nM
NC1CCCN(C2CC(c3ccc(F)cc3)CC2n2nccn2)C1 (centres unmarked) [Example 1, 1-[4-(4-fluorophenyl)-2-(triazol-2-yl)cyclopentyl]piperidin-3-amine]	3.37 nM	17.7 nM
N#Cc1ccc(OC2CC(c3ccc(F)cc3)CC2N2CCCC(N)C2)cn1 (centres unmarked) [Example 27]	22 nM	50.7 nM
NC1CC(F)CN(C2CC(c3ccc(F)cc3)CC2Oc2ccncn2)C1 (centres unmarked) [Example 29, 5-fluoro-1-[4-(4-fluorophenyl)-2-pyrimidin-4-yloxy-cyclopentyl]piperidin-3-amine]	3.44 nM	3.68 nM
N#Cc1cnn(C2CC(c3ccc(F)cc3)CC2N2CCC(F)(F)C(N)C2)c1 (centres unmarked) [Example 7, 1-[2-(3-amino-4,4-difluoro-1-piperidyl)-4-(4-fluorophenyl)cyclopentyl]pyrazole-4-carbonitrile]	16.2 nM	17.5 nM
Cc1cc(C#N)nnc1OC1CC(c2ccc(F)cc2)CC1N1CC(N)CC(F)C1 (centres unmarked) [Example 22, 6-[2-(3-amino-5-fluoro-1-piperidyl)-4-(4-fluorophenyl)cyclopentoxy]-5-methyl-pyridazine-3-carbonitrile]	28.8 nM	118 nM
NC1CCCN(C2CC(c3ccc(F)cc3)CC2n2ncnn2)C1 (centres unmarked) [Example 12, 1-[4-(4-fluorophenyl)-2-(tetrazol-2-yl)cyclopentyl]piperidin-3-amine]	26.7 nM	7.55 nM
N#Cc1ncn(C2CC(c3ccc(F)cc3)CC2N2CCCC(N)C2)n1 (centres unmarked) [Example 13, 1-[2-(3-amino-1-piperidyl)-4-(4-fluorophenyl)cyclopentyl]-1,2,4-triazole-3-carbonitrile]	7.1 nM	14.3 nM
N[C@@H]1CCCN([C@H]2C[C@@H](c3ccc(F)cc3)C[C@@H]2Oc2cc(F)cnn2)C1 [Example 25, (R)-1-((1S,2S,4R)-4-(4-fluorophenyl)-2-(5-fluoropyridazin-3-yloxy)cyclopentyl)piperidin-3-amine]	9.93 nM	209 nM
COc1cc(C2CC(Oc3ccc(C#N)cc3)C(N3CCCC(N)C3)C2)ccc1F (centres unmarked) [Example 15, 4-[2-(3-amino-1-piperidyl)-4-(4-fluoro-3-methoxy-phenyl)cyclopentoxy]benzonitrile]	9.51 nM	22.5 nM
N#Cc1ncc(OC2CC(c3ccc(F)cc3)CC2N2CCCC(N)C2)cn1 (centres unmarked) [Example 32, 5-[2-(3-amino-1-piperidyl)-4-(4-fluorophenyl)cyclopentoxy]pyrimidine-2-carbonitrile]	10.6 nM	39.2 nM
N#Cc1ccc(OC2CC(c3ccc(F)cc3)CC2N2CC(N)CC(F)(F)C2)cc1 (centres unmarked) [Example 18, 4-[2-(5-amino-3,3-difluoro-1-piperidyl)-4-(4-fluorophenyl)cyclopentoxy]benzonitrile]	31.1 nM	42.5 nM
